In PMC12458691 (Inorganic Chemistry, 2025):
Where two headings read alike, the source gives them in different places.

How the values were obtained:
[1] = Catalase activity by pressure monitoring of evolved O2; format: biochemical; conditions: 25°C, pH 7.5
Protocol: The quantification of the evolved oxygen is frequently used to evaluate the catalase activity. − In this work, the amount of gas evolved during the reaction of the Fe^2+–^ COOH PyNMe 3 complex with hydrogen peroxide was monitored by measuring the pressure changes over time using a previously calibrated Man on the Moon X104 gas evolution kit. For that purpose, 2.5 mL of an aqueous solution of the complex at concentrations of (0.5–2.7) × 10^–4 M buffered at pH 7.5 with TRIS (50 mM) was prepared inside a glovebox, placed in a closed reaction vessel, and purged with nitrogen. Once the pressure readings were stabilized, 0.2–1.2 mL of a 0.12 M aqueous solution of H2O2 (also prepared in TRIS 50 mM at pH 7.4) was added, and the pressure was then measured as a function of time. A blank experiment was conducted with a complex-free solution of a 50 mM TRIS solution with hydrogen peroxide at pH 7.4, where no O2 evolution was detected. The same result was obtained for blank experiments, including also the ligand but not the metal ion or the free metal ion (i.e., Fe^2+, Fe^3+, or Cu^2+) in the absence of the ligand (see Entries 8–12 in Table ). […] Nevertheless, the possible formation of small amounts of CO2, which would introduce a small error in the estimation of evolved O2, cannot be completely ruled out.

[2] = set-up: method as in footnotes c–f, numbers not given; conditions: Cu2+ complexes/salt/enzyme, literature data for comparison; ref footnotes c–f, numbers not given; cited from earlier work
[3] = 0.15 M NaClO4, 298.1 K, ref footnote c, number not printed, cited from earlier work
[4] = Stability constants and speciation of Cu2+ complexes by potentiometric measurements; format: physicochemical; conditions: for pCu: calculated for theoretical solutions
Protocol: (§1) Caution! Perchlorate salts are explosive and should be handled with care; such compounds should never be heated as solids. The potentiometric titrations were carried out at 298.1 ± 0.1 K using 0.15 M NaClO4 as the supporting electrolyte. The experimental procedure (buret, potentiometer, cell, stirrer, microcomputer, etc.) has been fully described elsewhere. The acquisition of raw potentiometric data was performed with the computer program PASAT. The reference electrode was a Ag/AgCl electrode in a saturated KCl solution. The glass electrode was calibrated as a hydrogen-ion concentration probe by titration of previously standardized amounts of HCl with CO2-free NaOH solutions, and the equivalent point was determined by Gran’s method, , which gives the standard potential, E̊, and the ionic product of water (pK w = 13.73(1)). The computer program […] was used to calculate the protonation and stability constants. The HYSS program was used to obtain the distribution diagrams. The pH range investigated by using this technique was 2.5–11.0, in accordance with the linear response range of glass electrodes. The solutions were extensively deaerated with an argon flow before the potentiometric runs. A moderate argon flow was maintained throughout the course of the titrations. The different titration curves for each system (at least two) were treated either as a single set or as separate curves without significant variations in the values of the stability constants. Finally, the sets of data were merged and treated simultaneously to give the final stability constants.

[5] = McCord–Fridovich nitroblue tetrazolium (NBT) SOD activity assay; format: biochemical; conditions: for SOD activity of the Fe2+ complexes (in words): NBT method, under the conditions of this study; for increase in the SOD catalytic constant of the Cu2+ complex on functionalization of the pyridine: relative to Cu2+ complexes of HPyNH3 or HPyNMe3
From the text: First, the SOD activity of the complexes was studied by means of the nitroblue tetrazolium (NBT) method, also known as McCord–Fridovich method. This is a widely used, indirect method based on the side production of superoxide anions by the xanthine oxidase enzyme and their capture by the NBT dye to give formazan. − A compound displaying SOD activity decreases the flow of superoxide radical anions and, thereby, the production of formazan (see the representation of the fitting of the data in Figures and S13–S16). Thus, by following the absorption band of formazan at 560 nm, the SOD activity of the studied mimetic can be quantified. Blank experiments were recorded with the ligands alone without observing any effect. The values of IC50, defined as the amount of the compound necessary for achieving 50% inhibition of NBT reduction to formazan by the superoxide anion, together with the catalytic constants (k cat), were obtained as indicated in the Experimental Section and are summarized in Table .
The SOD-like activity was determined by using the nitroblue tetrazolium (NBT) method, which despite its limitations is frequently used to estimate the activity of SOD mimetics. − The assays were carried out in a pH = 7.4 50 mM HEPES buffer at 298 K. The xanthine (2.2 × 10^–4 M) and xanthine oxidase (ca. 3 UN) system was used to generate a reproducible and constant flux of superoxide anions. […] Data in the absence of the complex were used as a reference. […] The percentage of inhibition of the NBT reduction to formazan was used as a measure of the SOD activity of the compounds. The concentration of the complex required to yield 50% inhibition of NBT reduction (IC50) was determined from a plot of percentage inhibition versus complex concentration. The IC50 data were calculated from the mean values of (at least) three independent measurements. The catalytic constant was calculated from the IC50 using the equation k cat = k NBT[NBT]/IC50 where k NBT = (5.94 ± 0.5) × 10^4 M^–1 s^–1. −

[6] = 0.15 M NaClO4, 298.1 K; ref footnote c, number not printed; cited from earlier work
[7] = Stability constants and speciation of Fe2+ complexes by potentiometric measurements; format: physicochemical; conditions: for pFe: calculated for theoretical solutions
Protocol: as §1

[8] = Protonation constants by potentiometric and UV–vis titrations; format: physicochemical
Protocol: as §1
The solvents used were of spectroscopic or equivalent grade. Water was twice distilled and passed through a Millipore apparatus. The pH values were measured with a Metrohm 713 pH meter, and adjustments of the hydrogen-ion concentration of the solutions were made with diluted HCl and NaOH solutions. UV–vis absorption spectra were recorded between pH 2 and 11 with an Agilent 8453 spectrometer. The resulting data from the titrations were used to calculate the third protonation constant of ^ COOMe PyNMe 3 . For this, the HypSpec program was employed, considering all of the absorbance intensities in the range of 250 and 350 nm.

[9] = entry 10: no ligand, [Cu2+]0 2.7 × 10^–4 M as Cu(ClO4)2, [H2O2]0 4.3 × 10^–2 M
[10] = entry 8: no ligand, [Fe2+]0 2.14 × 10^–4 M as Fe(SO4), [H2O2]0 3.4 × 10^–2 M
[11] = entry 9: no ligand, 2.14 × 10^–4 M FeCl3, [H2O2]0 3.4 × 10^–2 M
[12] = entry 12: ligand alone 2.14 × 10^–4, no metal ion, [H2O2]0 3.4 × 10^–2 M
[13] = 0.15 M NaClO4, 298.1 K, potentiometry

[Cu+2].[O-][Cl+3]([O-])([O-])[O-].[O-][Cl+3]([O-])([O-])[O-] [Cu(ClO4)2]
TON (moles of H2O2 decomposed by one mol of metal ions) [1, 9]: 0 | nO2(g) [1, 9]: 0 mol | k cat (SOD catalytic constant) [2]: 2.7 10^6 M^–1 s^–1

O=S(=O)([O-])[O-].[Fe+2] [Fe(SO4)]
TON (moles of H2O2 decomposed by one mol of metal ions) [1, 10]: 0 | nO2(g) [1, 10]: 0 mol

[Cl][Fe]([Cl])[Cl] [FeCl3]
TON (moles of H2O2 decomposed by one mol of metal ions) [1, 11]: 0 | nO2(g) [1, 11]: 0 mol

O=C(O)c1cc2nc(c1)CNCCNCCNC2 [^ COOH PyNH 3]
k cat (SOD catalytic constant) [2]: 9.7 10^6 M^–1 s^–1 | log K, Cu+L⇄[CuL] (stability constant) [3]: 17.62(2) ^c, ^d | log K, [CuL]+H2O⇄[CuL(OH)]+H [3]: –9.07(2) ^c | log K, Cu+L⇄[CuL] (stability constant) ([3]; listed as COOHPyNH3): 17.62 | pCu ([4]; pH 7.4, [L]=[M]=1 µM): 9.80 | pCu ([4]; pH 7.4, [L]=[M]=10 µM): 9.30 | SOD activity of the Fe2+ complexes (in words) [5]: negligible SOD activity | increase in the SOD catalytic constant of the Cu2+ complex on functionalization of the pyridine [5]: 6- to 10 fold | log K, H2L^(2+x)++H^+⇄H3L^(3+x)+ (stepwise protonation constant) [6]: 2.25(2) | log K, HL^(1+x)++H^+⇄H2L^(2+x)+ (stepwise protonation constant) [6]: 7.90(1) | log K, L^x+H^+⇄HL^(1+x)+ (stepwise protonation constant) [6]: 10.80(1) ^d | log β (∑log K, protonation) [6]: 20.95

CN1CCN(C)Cc2cc(C(=O)O)cc(n2)CN(C)CC1 [^ COOH PyNMe 3]
log K, Fe+L⇄[FeL] (stability constant) ([7]; 0.15 M NaClO4, 298.1 K): 10.02(2) | log K, [FeL]+H2O⇄[FeL(OH)]+H ([7]; 0.15 M NaClO4, 298.1 K): –9.44(4) | pFe ([7]; pH 7.4, [L]=[M]=1 µM): 6.22 | pFe ([7]; pH 7.4, [L]=[M]=10 µM): 5.58 | free Fe2+ ([7]; pH 7.5, [COOHPyNMe3]=[Fe2+]=50 µM, 0.15 M NaClO4 (Figure S19)): 10.9% | free Fe2+ ([7]; pH 7.5, [COOHPyNMe3]=[Fe2+]=270 µM, 0.15 M NaClO4 (Figure S18)): 4.8% | TON (moles of H2O2 decomposed by one mol of metal ions) [1, 12]: 0 | nO2(g) [1, 12]: 0 mol | log K, Cu+L⇄[CuL] (stability constant) ([4]; 0.15 M NaClO4, 298.1 K): 16.35(4) | log K, [CuL]+H2O⇄[CuL(OH)]+H ([4]; 0.15 M NaClO4, 298.1 K): –9.24(7) | log K, Cu+L⇄[CuL] (stability constant) ([4]; 0.15 M NaClO4, 298.1 K, listed as COOHPyNMe3): 16.35 | pCu ([4]; pH 7.4, [L]=[M]=1 µM): 9.18 | pCu ([4]; pH 7.4, [L]=[M]=10 µM): 8.68 | SOD activity of the Fe2+ complexes (in words) [5]: negligible SOD activity | k cat (SOD catalytic constant) ([5]; metal complexes, calculated from IC50 as kNBT[NBT]/IC50, pH 7.4, [NBT] = 59 μM): 12.3 10^6 M^–1 s^–1 | increase in the SOD catalytic constant of the Cu2+ complex on functionalization of the pyridine [5]: 6- to 10 fold | log β (∑log K, protonation) ([8]; 0.15 M NaClO4, 298.1 K): 21.53 | log K, H2L^(2+x)++H^+⇄H3L^(3+x)+ (stepwise protonation constant) [8, 13]: 2.90(4) | log K, HL^(1+x)++H^+⇄H2L^(2+x)+ (stepwise protonation constant) [8, 13]: 7.73(3) | log K, L^x+H^+⇄HL^(1+x)+ (stepwise protonation constant) [8, 13]: 10.90(2) | three protonation constants, span from first to third ([8]; potentiometric titrations (third constant of COOMePyNMe3 by UV)): 10.90 to 2.90 logarithmic units
